Laboratory results: article PMC8217170, “Phase Ib dose-escalation study of the hypoxia-modifier Myo-inositol trispyrophosphate in patients with hepatopancreatobiliary tumors” (Nature Communications, 2021)
Several values for one entry are separate records, joined by “and”; a condition that tells them apart may be missing. Identical values can stand only once. Like-named read-outs stand apart in the source and are kept apart here.

What was measured:
[1] = tested on: target lesions of PDAC, CRLM, CCA and HCC; assay: Metabolic radiological response, FDG-PET-CT, EORTC criteria; format: in vivo, human; set-up: key to EORTC response after chemotherapy / EORTC response after ITPP / RespITPP_EORTC / RespChemo_EORTC: CMR = complete metabolic response; PMR = partial metabolic response; SMD = stable metabolic disease; PMD = progressive metabolic disease; Lesion1_pre_TLG / Lesion1_post_TLG / Lesion1_chemo_TLG / Lesion2_pre_TLG / Lesion2_post_TLG / Lesion2_chemo_TLG / Lesion3_pre_TLG / Lesion3_post_TLG / Lesion3_chemo_TLG / Lesion4_pre_TLG / Lesion4_post_TLG / Lesion4_chemo_TLG / Lesion5_pre_TLG / Lesion5_post_TLG / Lesion5_chemo_TLG: unit not given here; conditions: for RespITPP_EORTC / RespChemo_EORTC: EORTC
Protocol: Radiological assessment, consisting of abdominal MRI and FDG-PET-CT, was performed before ITPP administration and after the 3-week treatment course. Where possible, radiological re-evaluation was performed after 3–6 cycles of chemotherapy. Radiological responses were evaluated according to the RECIST 1.1 criteria[56] for MRI and EORTC criteria[57] for FDG-PET-CT imaging.
Then first calculate the sum of diameters (DM) and SUV-activities of radiological target lesions before ITPP (sum_pre), after ITPP (sum_post) and after subsequent chemotherapy (sum_chemo) for assessment of morphological RECIST1.1 (diameter) and metabolical EORTC (SUV activiy) responses.
Patient 1 (dropout after only 2 infusions and subsequent death due to rapid oncological progression) is excluded for radiological assessment due to no follow up imaging available.
In a second step, we calculate percent changes (PC) of diameter and SUV activity between before ITPP, after ITPP and after chemotherapy.

VEGFA = assay: Serum angiogenesis marker, multiplex bead-based immunoassay (LEGENDplex); format: in vivo, human; set-up: VEGF: unit not given here; conditions: for VEGF: serum, duplicate wells
[2] = tested on: patients with PDAC, CRLM, CCA and HCC; assay: Progression free and overall survival; format: in vivo, human; conditions: for Follow up from study start / Survival status: individual patients; for Survival status: per 31st of December 2018
Description: Ad hoc outcomes consisted of assessment of overall survival of patients in regard to tumor type and cohort as well as histological assessment of hypoxia markers in tumor tissue of selected patients.
Cohort size was based on the traditional 3 + 3 dose-escalation scheme without formal power or sample size calculation. Data are summarized with descriptive statistics using medians and interquartile ranges (IQRs) as indicated. Pearson’s coefficient was used to test for correlation between numerical variables, and Mann–Whitney U or Kruskal–Wallis tests for differences in continuous variables among groups. Kaplan–Meier curves and the Mantel–Cox log rank test were used for survival analyses. No adjustment for multiple testing was performed.

[3] = tested on: human colon carcinomatosis; set-up: method as in ref 12 (supplementary references); conditions: xenogeneic mouse model of human colon carcinomatosis; ref 12 (supplementary references); cited from earlier work
[4] = tested on: colorectal liver metastasis; conditions: cited from earlier work; for Survival: ref 16 (supplementary references)
[5] = set-up: method as in unpublished data obtained from NormOxys; conditions: minipigs, once weekly; ref unpublished data obtained from NormOxys; cited from earlier work
[6] = individual patients, lesion 4, pre ITPP (baseline)
[7] = individual patients, lesion 5, after subsequent chemotherapy
[8] = individual patients, lesion 5, post ITPP
[9] = individual patients, lesion 5, pre ITPP (baseline)

In the case of O=P1(O)OC2C3OP(=O)(O)OP(=O)(O)OC3C3OP(=O)(O)OP(=O)(O)OC3C2OP(=O)(O)O1 (stereo not drawn) [ITPP, Myo-inositol trispyrophosphate], the Lesion4_pre_SUV [1, 6] is reported as 7.6 and 11.5 and 4.2 and 8.83 and 3.9 and 13.22, the Lesion4_pre_TLG [1, 6] is reported as 17.4 and 33.9 and 16.4 and 1.1 and 84.7 and the Lesion5_chemo_SUV [1, 7] is reported as 2 and 9.1 and 1.4 and 0. The Lesion5_chemo_TLG [1, 7] was 3.4 and 0, the Lesion5_post_SUV [1, 8] was 6.8 and 10.7 and 1.35 and 6.92 and the Lesion5_post_TLG [1, 8] was 18.9 and 0 and 11.9. The Lesion5_pre_SUV [1, 9] was 7.3 and 11.5 and 6.85 and 3.5 and 3.76, the Lesion5_pre_TLG [1, 9] was 7.3 and 4.3 and 0.6 and 2.7 and the RespITPP_EORTC ([1]; individual patients, metabolic response after ITPP monotherapy) was “SMD and PMR and PMD”. For the same compound, the RespChemo_EORTC ([1]; individual patients, metabolic response after subsequent chemotherapy following ITPP) was “SMD and PMD and PMR”, the RespITPP_EORTC ([1]; metabolic response after ITPP, per individual patient, cohort c1, tumor c2) was “SMD and PMR and PMD” and the RespChemo_EORTC ([1]; metabolic response after chemotherapy following ITPP, per individual patient, cohort c1, tumor c2) was “SMD and PMD and PMR”. For the same compound, the “Share of patients with reduced VEGFA” value (VEGFA; following ITPP treatment, 27 patients) was 44.4%, the VEGF (VEGFA; Patient 25, Cohort 8, PDAC, Day 3 post) was 30.91 and the VEGF (VEGFA; Patient 25, Cohort 8, PDAC, Day 9 post) was 33.24 and 35.03. For the same compound, the VEGF (VEGFA; Patient 26, Cohort 8, PDAC, Day 3 post) was 5.98 and 4.62, the VEGF (VEGFA; Patient 26, Cohort 8, PDAC, Day 9 post) was 11.09 and 13.08 and the VEGF (VEGFA; Patient 27, Cohort 8, CCC, Day 3 post) was 10.87 and 8.9. The VEGF (VEGFA; Patient 27, Cohort 8, CCC, Day 9 post) was 8.12 and 8.9, the VEGF (VEGFA; Patient 28, Cohort 8, CRLM, Day 3 post) was 2.84 and the VEGF (VEGFA; Patient 28, Cohort 8, CRLM, Day 9 post) was 2.84. For the same compound, the “Median OS from start of ITPP infusions” value ([2]; CCA) was 302 days, the “Median progression free survival (PFS)” value ([2]; CCA) was 158 days and the “Median OS from start of ITPP infusions” value ([2]; CRLM) was 340 days. The “Median progression free survival (PFS)” value ([2]; CRLM) was 23 days, the “Median OS from start of ITPP infusions” value ([2]; HCC) was 684 days and the “Median progression free survival (PFS)” value ([2]; HCC) was 345 days. The “Median OS from start of ITPP infusions” value ([2]; PDAC) was 165 days, the “Median progression free survival (PFS)” value ([2]; PDAC) was 32 days and the “Follow up from study start” value ([2]; cohort 1 (1866 mg/m2)) was 16 days and 464 days and 159 days and 398 days. For the same compound, the Survival status ([2]; cohort 1, 1866 mg/m2) was “Dead”, the “Follow up from study start” value ([2]; cohort 2 (3732 mg/m2)) was 783 days and 188 days and 158 days and the Survival status ([2]; cohort 2, 3732 mg/m2) was “Dead”. For the same compound, the “Follow up from study start” value ([2]; cohort 3 (5600 mg/m2)) was 159 days and 171 days and 206 days, the Survival status ([2]; cohort 3, 5600 mg/m2) was “Dead” and the “Follow up from study start” value ([2]; cohort 4 (7000 mg/m2)) was 193 days and 219 days and 684 days and 10 days. The Survival status ([2]; cohort 4, 7000 mg/m2) was “Dead”, the “Follow up from study start” value ([2]; cohort 5 (8750 mg/m2)) was 196 days and 202 days and 68 days and the Survival status ([2]; cohort 5, 8750 mg/m2) was “Dead”. For the same compound, the “Follow up from study start” value ([2]; cohort 6 (10500 mg/m2)) was 394 days and 510 days and 500 days and 301 days, the Survival status ([2]; cohort 6, 10500 mg/m2) was “Dead and Alive” and the “Follow up from study start” value ([2]; cohort 7 (12390 mg/m2)) was 87 days and 380 days and 392 days. For the same compound, the Survival status ([2]; cohort 7, 12390 mg/m2) was “Dead and Alive”, the “Follow up from study start” value ([2]; cohort 8 (14500 mg/m2)) was 43 days and 73 days and 266 days and 206 days and the Survival status ([2]; cohort 8, 14500 mg/m2) was “Dead and Alive”. The Overall survival ([2]; patients with a lowering of PECAM1/CD31 under ITPP, p = 0.36) was 380 days, the Overall survival ([2]; patients with a lowering of VEGFA under ITPP, p = 0.053) was 398 days and the Overall survival ([2]; patients without lowering of PECAM1/CD31 under ITPP) was 171 days. The Overall survival ([2]; patients without lowering of VEGFA under ITPP) was 196 days, the “Median OS from start of ITPP infusions” value ([2]; whole patient population) was 206 days and the “Median progression free survival (PFS)” value ([2]; whole patient population) was 48 days. For the same compound, the “Decrease of tumor growth compared with capecitabine” value [3] was “more efficient than capecitabine”, the Survival ([4]; FOLFOX combined with ITPP, 10 days, five times each on alternate days) was 153 days and the Survival ([4]; FOLFOX given following ITPP treatment) was 152 days. For the same compound, the Survival ([4]; ITPP alone) was 65.5 days, the Extension of survival ([4]; syngeneic mouse model of colorectal liver metastasis, 17 (supplementary references)) was 60% and the “Human equivalent dose-corrected NOAEL” value [5] was 43,750 mg/m2.
